Where “and” joins values, the source holds several entries; their conditions need not be identical. Equal values may be shown once.
Assays:
domestic flies [1] = assay: insecticidal activity, full-scale (large-scale) test in premises; type: in vivo; conditions: 2% solution, 2-3 dishes per 20 m²; 72 hours
Experimental: The full-scale tests for activity of the insecticidal composition of the invention to domestic flies in habitable and industrial premises were carried out as follows. The Petri dishes containing a 2% solution of the insecticidal composition of the invention were located according 2-3-dishes per 20 m². The composition activity was evaluated by a direct estimation of killed insects in 72 hours or by using an adhesive tape to count the number of flies on its surface prior to and after conducting the test.

[2] = mice and rats; cited from earlier work
domestic flies [3] = assay: insecticidal activity, laboratory test in gauze boxes; type: in vivo; conditions: 2% solution in 5% aqueous glucose; observed in 48-72 hours
Experimental: The compound obtained was used for preparing an insecticidal composition which was a 2% solution of the compound in a 5% aqueous solution of glucose. The test for activity of the insecticidal composition of the invention was conducted on domestic flies. Into gause 10x10 cm boxes /6 boxes/ 6-7-day flies were placed in the number of 50 individuals per box, which were of both sexes. The Petri dishes containing the insecticidal composition of the invention were put into 5 boxes. The observations for fly death were carried out in 48-72 hours. The Petri dish containing a 5% aqueous glucose solution were placed into a control box.

Escherichia coli = assay: microbe, parasite or virus in culture; type: cell-based; conditions: Escherichia coli, read-out: Death of micro-organisms, % Escherichia coli
Staphylococcus aureus = assay: microbe, parasite or virus in culture; type: cell-based; conditions: Staphylococcus aureus, read-out: Death of micro-organisms, % Staphylo-cocus aureus
Candida albicans [4] = assay: fungicidal activity, laboratory test on Sabouraud medium; type: cell-based; conditions: 0.01% solution in water
Experimental: (§1) A fungicidal composition based on this compound was prepared, which was a 0.01% solution of the compound in water. […] For testing it the Petri dishes containing Sabourand growth medium were inoculated by using suspension of microorganisms containing 5x10⁷ cells of fungi in 1 ml.
(§2) The restricted surface areas (7 mm in diameter) were coated with the composition by means of a small metal spatula 4x4 mm in size. In a day of incubating it at 37°C in the thermostat the composition inhibited the growth of yeast-like fungi. An antifungal activity of the composition was specified according to the method of 10-fold serial dilution using Sabourand's liquid medium in 2 ml of which 2x10⁵ cells were introduced.

Candida albicans [5] = assay: fungicidal activity, large-scale test on surfaces of articles; type: cell-based; conditions: 0.01% solution in water
Experimental: (§3) The large-scale tests were carried out by using Candida albicans and Candida tropicalis strains, with their 2-day agar culture being diluted with an isotonic sodium chloride solution up to the concentration of 5x10⁷ cells in 1 ml. The culture suspension was laid on the surface (7 mm in diameter) of articles made of ceramics, metal, wood and rubber as well as a cotton, flannel and woollen cloth which were presterilized.
(§4) In a day after incubation from the treated areas washings were taken with a cotton-gauze tampon which was moistened with Sabouraud's liquid medium, then they were immersed into the tubes containing a similar medium, and placed into thermostat at 37°C for 2 days. Thereafter, the inoculum was transfered onto a solified Sabouraud agar, and the values of growth were recorded according to a conventional procedure. The test data of the composition according to the invention over a known composition (zineb) and the control are given in Table 3.

Candida Tropi-calis [6] = assay: fungicidal activity, laboratory test on Sabouraud medium; type: cell-based, Candida tropicalis; conditions: 0.01% solution in water
Experimental: as §1, §2

Candida Tropi-calis [7] = assay: fungicidal activity, large-scale test on surfaces of articles; type: cell-based, Candida tropicalis; conditions: 0.01% solution in water
Experimental: as §3, §4

Hepatitis B virus = assay: virulicidal activity, HBsAg titer in blood serum
Text: table ratio instead of the test composition.

Meningopneumonia virus = test system: Meningopneumonia virus; parameters: species or system meningopneumonia pathogene/MP strain/
Influenza A viruses = assay: virulicidal activity, virus titer in allantoic fluid by hemagglutination-inhibition

## COP(=O)(OC)C(O)C(Cl)(Cl)Cl (centres unmarked) [0,0-dimethyl/1-hydroxy-2,2,2,-trichloroethyl/-phosphonate, reference compound]
Domestic flies [1]
  Death of flies, % Tests in large-scale: 88.0%
[2]
  LD₅₀: 225 to 1200 mg/kg

## COP(=NC(CCl)C(Cl)c1ccc([N+](=O)[O-])cc1)(OC)OC (centres unmarked) [Example 9, trimethoxyphosphazo-1-para-nitrophenyl-1,3-dichloropropane]
Domestic flies [3]
  Death of flies, % Tests in laboratory: 85.2%
Domestic flies [1]
  Death of flies, % Tests in large-scale: 83.0%
Escherichia coli
  killing at 0.5 %: 100%
Staphylococcus aureus
  killing at 0.5 %: 100%
Candida albicans [4]
  Growth inhibition of fungal colonies, % Candida albicans Laboratory tests: 100.0%
Candida albicans [5]
  Growth inhibition of fungal colonies, % Candida albicans Large-scale tests: 100.0%
Candida Tropi-calis [6]
  Growth inhibition of fungal colonies, % Candida Tropi-calis Laboratory tests: 100.0%
Candida Tropi-calis [7]
  Growth inhibition of fungal colonies, % Candida Tropi-calis Large-scale tests: 100.0%

## CCOP(=NC(CCl)C(Cl)c1ccc([N+](=O)[O-])cc1)(OCC)OCC (centres unmarked) [Example 10, triethoxyphosphazo-1-para-nitrophenyl-1,3-dichloropropane]
Domestic flies [3]
  Death of flies, % Tests in laboratory: 89.9%
Domestic flies [1]
  Death of flies, % Tests in large-scale: 88.0%
Escherichia coli
  killing at 0.5 %: 100%
Staphylococcus aureus
  killing at 0.5 %: 99.8%
Candida albicans [4]
  Growth inhibition of fungal colonies, % Candida albicans Laboratory tests: 100.0%
Candida albicans [5]
  Growth inhibition of fungal colonies, % Candida albicans Large-scale tests: 100.0%
Candida Tropi-calis [6]
  Growth inhibition of fungal colonies, % Candida Tropi-calis Laboratory tests: 100.0%
Candida Tropi-calis [7]
  Growth inhibition of fungal colonies, % Candida Tropi-calis Large-scale tests: 100.0%

## CCOP(=NC(CCl)C(O)c1ccc([N+](=O)[O-])cc1)(OCC)OCC (centres unmarked) [Example 16, triethoxy-phosphazo-1-para-nitrophenyl-1-chloro-3-propanol]
Candida albicans [4]
  Growth inhibition of fungal colonies, % Candida albicans Laboratory tests: 100.0%
Candida albicans [5]
  Growth inhibition of fungal colonies, % Candida albicans Large-scale tests: 100.0%
Candida Tropi-calis [6]
  Growth inhibition of fungal colonies, % Candida Tropi-calis Laboratory tests: 100.0%
Candida Tropi-calis [7]
  Growth inhibition of fungal colonies, % Candida Tropi-calis Large-scale tests: 100.0%
Hepatitis B virus; concentration 1.0 % by mass
  Virulicidal activity (%) under exposure 30 min: 50.0%
  Virulicidal activity (%) under exposure 60 min: 75.0%
Hepatitis B virus; concentration 2.0 % by mass
  Virulicidal activity (%) under exposure 30 min: 100,0%
  Virulicidal activity (%) under exposure 60 min: 100,0%
Meningopneumonia virus
  Virulicidal activity (%) under exposure 30 min: 25.0% and 50.0%
  Virulicidal activity (%) under exposure 60 min: 50.0% and 99.0%
Influenza A viruses; concentration 1.0 % by mass
  Virulicidal activity (%) under exposure 30 min: 50.0%
  Virulicidal activity (%) under exposure 60 min: 75.0%
Influenza A viruses; concentration 2.0 % by mass
  Virulicidal activity (%) under exposure 30 min: 98.4%
  Virulicidal activity (%) under exposure 60 min: 100.0%

— patent EP0414894A1 (priority 1989, dated 1990)
